pIC50: −log10 of the molar value.
Tests used:
ovine COX-1 = molecular target: T1, ovine COX-1 (Ovis aries, UniProt P05979); test: COX (ovine) Inhibitor Screening Assay, COX-1 (EIA of PGF2α); assay type: biochemical; conditions: Cayman COX inhibitor screening assay kit
T1 construct: purchased Cayman Chemical, USA 560131
T1 sequence (P05979 25-600): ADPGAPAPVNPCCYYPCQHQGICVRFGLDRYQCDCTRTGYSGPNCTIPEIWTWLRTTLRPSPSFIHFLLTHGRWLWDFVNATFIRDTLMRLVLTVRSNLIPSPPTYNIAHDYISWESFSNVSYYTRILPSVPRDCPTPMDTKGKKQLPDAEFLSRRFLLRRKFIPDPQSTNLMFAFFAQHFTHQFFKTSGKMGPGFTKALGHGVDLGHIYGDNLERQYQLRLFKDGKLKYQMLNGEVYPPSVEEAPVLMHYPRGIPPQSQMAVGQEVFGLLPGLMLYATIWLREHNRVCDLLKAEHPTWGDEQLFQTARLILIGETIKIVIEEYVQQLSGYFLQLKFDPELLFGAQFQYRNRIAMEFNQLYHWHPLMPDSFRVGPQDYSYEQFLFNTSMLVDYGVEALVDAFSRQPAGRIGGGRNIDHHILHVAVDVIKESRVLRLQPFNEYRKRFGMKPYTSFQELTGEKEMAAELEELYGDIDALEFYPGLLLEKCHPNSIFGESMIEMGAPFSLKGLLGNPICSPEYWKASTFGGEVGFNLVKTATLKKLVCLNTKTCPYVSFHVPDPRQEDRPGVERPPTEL
Excerpt: (§1) 2-Butanone, ethylcyanoacetate (≥98%), dimethylformamide (≥99.5%), ethanol (≥99%), n-hexane, cyanamide and sulphur (≥99.5%) were bought from Acros Chemical (USA). Diethylamine, sodium sulphate anhydrous and analytical grade NaOH pellets were bought from Fisher Scientific (UK). 1,4-dioxane, concentrated HCl, ethyl acetate, hexane, chloroform, 4-fluorobenzoyl chloride (98%) , 4-methoxyphenyl acetonitrile (≥97%), 4-fluorophenyl acetonitrile (≥99%), and 2-(trifluoromethyl)benzoyl chloride were bought from Aldrich Chemicals. TLC Silica gel 60 F254 was obtained from Merck, USA. COX inhibitor screening assay kit (Item no. 560131) was procured from Cayman Chemical, USA.
(§2) The COX (ovine) Inhibitor Screening Assay was performed mainly to determine the selective inhibition of tested compounds (4a, 4b, 5a, 5b) towards the ovine COX-1 and human recombinant COX-2 isoenzymes. The addition of arachidonic acid (AA) helped to convert the COX component into PGG2, followed by reduction of PGG2 into PGH2. The following addition of SnCl2 converted PGH2 into PGF2α. The assay directly measures the PGF2α0 via enzyme immunoassay (EIA) using a broadly specific antiserum that bound to all PG tracers. Depending on the tested compounds inhibitory effect, the concentration of PGF2α in each well varied and was inversely proportional to the amount of PG tracers that was able to bind to the antiserum. PG tracers-antiserum complex was left to bind to the mouse monoclonal anti-rabbit antibody that has been coated to the well during the 18 hours incubation. Ellman's reagent was added to give distinct yellow coloration to the products from this enzymatic reaction, which absorbed strongly at 412 nm. The intensity of the color was proportional to the amount of PG tracers-antiserum complex bound to the well, which was inversely proportional to the concentration of PGF2α present.
(§3) The inhibitory activity of tested compounds was determined based on IC50 values whereas the selectivity was based on their selectivity indices (SI), which defined as COX-1 IC50/COX-2 IC50. In the assay system, indomethacin was used as non-selective COX inhibitor standard while NS-398 was used as COX-2 selective inhibitor standard.

human recombinant COX-2 = molecular target: T2, human recombinant COX-2 (Homo sapiens, UniProt P35354); test: COX Inhibitor Screening Assay, COX-2 (EIA of PGF2α); assay type: biochemical; conditions: for pIC50: human recombinant COX-2, Cayman COX inhibitor screening assay kit; for SI (selectivity index, COX-1 IC50/COX-2 IC50): ratio COX-1 IC50/COX-2 IC50; for selective inhibition against COX-2: statement in words, COX-2 versus COX-1
T2 construct: purchased Cayman Chemical, USA 560131
T2 sequence (P35354 18-604): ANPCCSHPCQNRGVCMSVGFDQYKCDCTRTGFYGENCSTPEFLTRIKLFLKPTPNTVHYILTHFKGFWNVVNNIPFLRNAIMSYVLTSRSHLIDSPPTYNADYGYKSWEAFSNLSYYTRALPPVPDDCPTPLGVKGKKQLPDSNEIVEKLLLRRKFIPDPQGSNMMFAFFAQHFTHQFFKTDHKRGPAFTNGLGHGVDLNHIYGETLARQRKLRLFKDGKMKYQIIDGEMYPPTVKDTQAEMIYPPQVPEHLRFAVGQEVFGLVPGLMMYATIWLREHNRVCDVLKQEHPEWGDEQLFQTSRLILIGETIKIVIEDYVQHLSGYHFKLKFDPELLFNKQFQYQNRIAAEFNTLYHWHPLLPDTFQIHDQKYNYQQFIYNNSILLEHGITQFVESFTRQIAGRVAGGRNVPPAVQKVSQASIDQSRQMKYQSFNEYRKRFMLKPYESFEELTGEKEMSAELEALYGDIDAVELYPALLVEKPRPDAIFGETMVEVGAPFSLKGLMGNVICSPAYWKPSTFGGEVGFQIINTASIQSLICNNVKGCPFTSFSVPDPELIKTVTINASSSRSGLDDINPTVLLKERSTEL
Excerpt: as §1, §2, §3

| SMILES | pIC50 (ovine COX-1) | pIC50 (human recombinant COX-2) | SI (selectivity index, COX-1 IC50/COX-2 IC50) (human recombinant COX-2) | selective inhibition against COX-2 (human recombinant COX-2) |
| --- | --- | --- | --- | --- |
| Cc1sc2nc(Cc3ccc(F)cc3)[nH]c(=O)c2c1C [Compound 4a, 2-(4-Fluorobenzyl)-5,6-dimethylthieno[2,3-d]pyrimidin-4(3H)-one] | 3.69 | 4.37 | 4.81 | mild selective inhibition |
| COc1ccc(Cc2nc3sc(C)c(C)c3c(=O)[nH]2)cc1 [Compound 4b, 2-(4-Methoxybenzyl)-5,6-dimethylthieno[2,3-d]pyrimidin-4(3H)-one] | 3.23 | 3.85 | 4.11 | mild selective inhibition |
| Cc1sc2nc(NC(=O)c3ccc(F)cc3)[nH]c(=O)c2c1C [Compound 5a, N-(5,6-Dimethyl-4-oxo-3,4-dihydrothieno[2,3-d]pyrimidin-2-yl)-4-fluorobenzamide] | 3.95 | 3.99 | 1.08 | mild selective inhibition |
| Cc1sc2nc(NC(=O)c3ccccc3C(F)(F)F)[nH]c(=O)c2c1C [Compound 5b, N-(5,6-dimethyl-4-oxo-3,4-dihydrothieno[2,3-d]pyrimidin-2-yl)-2-(trifluoromethyl)benzamide] | 4.66 | 3.72 | 0.12 | mild selective inhibition |

— US11932656B1, “Thieno[2,3-d]pyrimidines as COX-2 inhibitors” (KING FAISAL UNIVERSITY, priority 2023, dated 2024)
